Experiments:
[1] = Solubility in alkaline and PBS solutions; format: physicochemical; settings: alkaline and phosphate-buffered saline solutions (PBS, pH=7.4)
Procedure: Oxidation of compound 3 was accompanied by vivid green luminescence when the excited oxidation product (compound 2) underwent deactivation (see FIG. 1).
Solids of compound 3 or luminol were dissolved in 0.01 M NaOH to a final concentration of 8.0×10^−3 M, and the resulting solutions were stored at 4° C. in the absence of light. The solutions were further diluted by using sterile phosphate-buffered saline (PBS, 0.01 M and pH 7.4) as desired in various studies. PMA was dissolved in DMSO to prepare 500 µg/ml solution. HRP was freshly prepared by dilution using sterile PBS.

[2] = In vitro chemiluminescence from oxidation by non-H2O2 ROS; settings: PBS pH 7.4, ROS 1.0×10^−3 M, probe 1.0×10^−6 M
Procedure: (§1) Solutions of 3 and luminol were prepared in 0.01 M PBS (pH of 7.4). For all ROS other than H2O2, the reaction was carried out by mixing 200 μL of the ROS solution (1.0×10^−3 M) with 800 μL of the solution of probe 3 or luminol (1.0×10^−6 M). The voltage of the photomultiplier tube (PMT) was set at −400 V. In the case of H2O2, 200 μL of its solution (1.0×10^−2 M) was used, and the voltage of PMT was set at −800 V; the other conditions were identical to those used for the other ROS.

[3] = In vitro chemiluminescence kinetics of oxidation by H2O2
Procedure: as §1

[4] = tested on: HRP; assay: Oxidation by H2O2 catalyzed by trace HRP in vitro; format: biochemical, horseradish
[5] = mouse, in vivo
Procedure: Nude mice (24-26 g) were anesthetized followed by intraperitoneal injection of 3 or 2 (in 0.01 M PBS pH 7.4) using a dose of 660 μg of 3 or 2 per kilogram of the mouse body weight. The mice were housed individually and received food ad libitum. Urine was collected every 1 to 2 hours, and the collected samples were diluted to appropriate concentration with PBS. Probe 3 in each urine sample was quantified by comparing the intensity of its chemiluminescence resulting from its oxidation by NaClO with those of standard solutions. […] The potential toxicity of the probe was further evaluated with a sample of 50 mice using a dose of probe 3 at 72 mg/kg body weight of mouse.

[6] = Acute toxicity in mice; settings: mouse, in vivo
Excerpt: The results are summarized in (a).

[7] = biological target: T1, HRP (Armoracia rusticana, UniProt P00433); assay: CLI of subcutaneously injected HRP in nude mice; format: in vivo
T1 construct: purchased Sigma-Aldrich
T1 sequence (P00433 31-338 limits assumed): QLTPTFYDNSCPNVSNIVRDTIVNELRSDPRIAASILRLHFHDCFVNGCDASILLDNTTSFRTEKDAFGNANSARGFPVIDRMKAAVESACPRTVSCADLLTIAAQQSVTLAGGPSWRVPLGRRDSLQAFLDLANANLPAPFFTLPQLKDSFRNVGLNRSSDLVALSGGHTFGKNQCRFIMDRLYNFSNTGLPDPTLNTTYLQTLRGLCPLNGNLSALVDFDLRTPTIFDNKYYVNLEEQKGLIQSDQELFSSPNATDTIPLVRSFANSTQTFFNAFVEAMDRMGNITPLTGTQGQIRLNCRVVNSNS
Procedure: CLI of HRP in the same nude mouse with the use of compound 3 as probe (7.2 mg per kg body weight, intraperitoneally injected). Against PBS-only control in the left foreleg, the total activity of HRP introduced into the right foreleg, the left hind leg, and the right hind leg were 0.0250, 0.125, and 0.250 U, respectively. The moment when the administration of 3 was completed was set as −20 min (panel (i)) with 0 min (panel (ii)) being the moment when the subcutaneous injection of HRP was finished. The circles in panel (ii) indicate both the sites of HRP introduction and the ROI for which photon-counting integration was performed.
Imaging of HRP was acquired in nude mice pre-injected with compound 3 (720 μg per kg body weight) against a control mouse intraperitoneally injected with luminol. […] To achieve significant CL intensity and to assure the accuracy of photon counting, the probe at a concentration of 720 μg/kg was used in subsequent studies in nude mice whose right foreleg, left hind leg, and right hind leg were injected with HRP of a total activity of 12.5 U, 25.0 U, and 50.0 U, respectively. Significant luminescence was produced and remained stable in a time window of 40 to 120 minutes following the introduction of HRP in each of the legs (data not shown).
In subsequent experiments, a dose of 7.2 mg/kg of compound 3 was used with which a total activity of HRP as low as 0.025 U could be detected. The CL produced intensified as the concentration of HRP increased, yielding a positive linear relationship.
Nude mice used in this work, each weighing 20-26 g, were obtained from the Laboratory Animal Center of the Fourth Military Medical University, China. Research and animal sacrifice protocols are in accordance with the principles and guidelines adopted by the Fourth Military Medical University. The mice were kept for an acclimatization period of 7 days under laboratory conditions (temperature maintained at 22±2° C., 12-hr cycles of alternating illumination and darkness, and free access to food and water) prior to any imaging experiments. […]

[8] = biological target: T2, HRP-Ab (Armoracia rusticana, UniProt P00433); assay: CLI of HRP-labeled goat anti-mouse IgG (HRP-Ab) in nude mice; format: in vivo
T2 construct: purchased ZSGB-Bio Inc. ZB2305
T2 sequence (P00433 31-338 limits assumed): T1 sequence (P00433 31-338 limits assumed)
Procedure: The use of the probe was validated using an enzyme-linked immunosorbent assay (ELISA) by imaging in nude mice the HRP-labeled goat anti-mouse IgG (HRP-Ab), a commercially available and commonly used HRP-antibody conjugate. To assess the sensitivity of the CLI, different amounts of the conjugate were administered to three of the legs of a nude mouse with the left foreleg injected with PBS only being the control. […] The brightness of the emission is proportional to the amount of HRP-Ab present. […] However, in the two hind legs, whose total activity of HRP is at 0.015 and 0.030 U, respectively, the emission of light was vivid, and the reduction in luminescence intensity was only about 10% after 60 minutes following the probe administration.
Nude mice used in this work, each weighing 20-26 g, were obtained from the Laboratory Animal Center of the Fourth Military Medical University, China. Research and animal sacrifice protocols are in accordance with the principles and guidelines adopted by the Fourth Military Medical University. The mice were kept for an acclimatization period of 7 days under laboratory conditions (temperature maintained at 22±2° C., 12-hr cycles of alternating illumination and darkness, and free access to food and water) prior to any imaging experiments. Nude mice were anesthetized by isoflurane inhalation, following which 200 μL of a solution of compound 3 or luminol in PBS of pH 7.4 was injected intraperitoneally. For the imaging of HPR or HRP-Ab, the probe solution (2.0×10^−3 M) was first injected, followed by the subcutaneous injection 20 minutes after of PBS and HRP (variable amount in 0.01 M PBS) solutions into the legs of nude mice. The control experiments with the use of luminol were conducted under otherwise identical conditions. IVIS 200 bioluminescence imaging system (Caliper Life Sciences) (f/stop, 1; no optical filter) was used for all imaging experiments. Exposure time was set at 5 minutes with moderate sensitivity, and the binning and field of view (FOV) are 8 and 13.3 cm, respectively. […]

[9] = tested on: raw 264.7 cells; human monocyte; assay: In vitro response to phagocyte respiratory burst; format: cell-based; settings: 5.0×10^−5 M; PMA or FMLP 100 μg/ml
Procedure: No chemiluminescence was detected in the absence of phorbol 12-myristate 13-acetate for (PMA) or N-formylmethionyl-leucyl-phenyl-alanine (FMLP). (a) CL kinetics resulting from the response of probe 3 to respiratory burst of raw 264.7 cells when stimulated with PMA (100 μg/ml). (b) CL kinetics resulting from the response of probe 3 to respiratory burst of human monocyte (10^6 cells/ml) in hank's when stimulated by FMLP (100 μg/ml). The kinetics curves were recorded with an MPI-A Chemiluminescence Analyzer with the use of probe 3 or luminol (5.0×10^−5 M).

[10] = tested on: acute dermatitis; assay: CLI of acute dermatitis induced by dimethylbenzene; format: in vivo, mice; settings: 720 μg/kg; 30, 60, 90 min
[11] = tested on: gingival hemorrhage; assay: CLI of gingival hemorrhage; format: in vivo, nude mice; settings: 200 μL of 2.0×10^−4 M
Procedure: (§2) Additional experiments were carried out using test mice suffering from gingival hemorrhage and mechanical injury. For example, nude mice were fed with cooked yolk for 1 week until gingival hemorrhage was visually identified. Various images were acquired (e.g., 0, 20 (supine position), and 30 min (prone position)) after the injection of 200 μL of 2.0×10^−4 M probe 3 or luminol (data not shown). […] Also, images of injuries (e.g., mechanical crush and syringe needle piecing, both on the end to tail) were acquired 0, 20, and 40 min, respectively, after the injection of 200 μL of probe 3 (2.0×10^−4 M).

[12] = tested on: mechanical crush and syringe needle piecing; assay: CLI of mechanical injuries on the tail; format: in vivo, mice; settings: 200 μL of 2.0×10^−4 M; 0, 20, 40 min
Procedure: as §2

[13] = tested on: inflammation; assay: CLI of inflammation caused by intramuscular injection of PBS; format: in vivo, nude mice; settings: PBS intramuscularly two days prior; compared with 18FDG-PET/CT
Procedure: Furthermore, inflammation caused by intramuscular injection of PBS was also clearly imaged using probe 3 and in comparison with results using PET/CT (data not shown). Nude mice were intramuscularly injected with PBS two days prior to said imaging experiments. For the verification of the induced inflammation, 18-Fluorodeoxyglucose-Positron emission tomography/Computed tomography (18FDG-PET/CT) scan, from feet to head, was performed 12 h after the CLI experiment. The test mouse was anesthetized with isoflurane inhalation followed by intraperitoneal injection of 3.7 MBq of ^18FDG. An uptake time of 60 min was allowed before acquisition.

O=C(O)c1cc2c(=O)[nH][nH]c(=O)c2cc1-c1c2ccc(=O)cc-2oc2cc(O)ccc12 [compound 3]
solubility [1]: readily soluble | CL response / sensitivity to ROS compared with luminol [2]: more sensitive | CL response / sensitivity to ROS compared with luminol ([2]; listed as probe 3): much stronger responses | duration of luminescence ([3]; H2O2 1.0×10^−2 M, PMT −800 V): more than 18 days | sensitivity toward H2O2 compared with the other ROS ([3]; PMT −800 V needed for detection): insensitivity | luminescence from oxidation by H2O2 ([4]; HRP 5.0×10−5 mg/mL added): intense emission of a green light | luminescence from oxidation by H2O2 ([4]; no HRP, probe 5.0×10^−3 M, H2O2 1.0×10^−4 M): no detectable luminescence | metabolism during the imaging procedure [5]: not quickly metabolized | uptake, IP versus IV injection [5]: comparable uptakes | probe cleared by uresis ([5]; nude): about 90% | acute toxicity [6]: does not appear that the probe or the resulting luminophore has significant acute toxicity | HRP activity at which production of CL appeared saturated ([7]; 720 μg/kg): about 25.0 U | lowest total activity of HRP detected ([7]; 7.2 mg/kg): ≤ 0.025 U | dosage at which CL could be detected ([7]; mice): about 2 μg/kg | reduction in luminescence intensity ([8]; 7.2 mg/kg IP, hind legs 0.015 and 0.030 U, after 60 minutes): about 10% | luminescence at HRP-Ab site ([8]; hind legs, 0.015 and 0.030 U): vivid | luminescence at HRP-Ab site ([8]; right foreleg, 0.0030 U HRP-Ab): inadequate to produce any significant photon count or luminescence | sensitivity for detection of ROS compared with luminol [9]: much more sensitive | CLI of acute dermatitis [10]: highly efficient | identification of sites of inflammation by luminescence [11]: clearly identified | identification of sites of inflammation by luminescence [12]: clearly identified | imaging of inflammation [13]: clearly showed inflammation

Nc1cccc2c(=O)[nH][nH]c(=O)c12 [luminol, Luminol, reference compound]
time for luminescence to decay to the baseline ([3]; H2O2 1.0×10^−2 M, PMT −800 V): about 600 s | CLI of acute dermatitis [10]: failed to produce any detectable signals

— patent publication US10912846B2, “Molecular probes for chemiluminescence imaging and in vivo detection of target molecules” (ARIZONA BOARD OF REGENTS ON BEHALF OF THE UNIVERSITY OF …, priority 2015, dated 2021)
